Data: patent US20230031280A1, “GLP-2 FUSION POLYPEPTIDES AND USES FOR TREATING AND PREVENTING GASTROINTESTINAL CONDITIONS” (SHIRE-NPS PHARMACEUTICALS, INC., priority 2017, published 2023)
Like-named read-outs stand apart in the source and are kept apart here.

Tests used:
[1] = Cynomolgus monkey pharmacokinetic study; assay type: in vivo, cynomolgus monkeys; conditions: subcutaneous, 12.5 nmol/kg
Experimental: Pharmacokinetics studies of teduglutide, GLP-2 Peptibody B and GLP-2 Peptibody K were formed in cynomolgus monkeys with citrulline assayed as a biomarker of GLP-2 concentration. In the study, 12.5 nmol/kg teduglutide was administered subcutaneously to a group of 6 male cynomolgus monkeys at day 1. Then for one set of 2 monkeys, 25 nmol/kg GLP-2 Peptibody B was administered intravenously at day 7, day 21, day 28, day 35, and day 42. For another set of 3 monkeys, 25 nmol/kg GLP-2 Peptibody B was administered subcutaneously at day 7, day 21, day 28, day 35, and day 42. For another set of monkeys, 5 nmol/kg GLP-2 Peptibody K was administered intravenously (2 monkeys) and subcutaneously (3 monkeys) at day 7, day 21, day 28, day 35, and day 42. For another set of monkeys, 25 nmol/kg GLP-2 Peptibody K was administered subcutaneously (3 monkeys) and intravenously (2 monkeys) at day 7, day 21, day 28, day 35, and day 42.

[2] = cited from earlier work
[3] = biological target: monomer/dimer self-association; assay: Microscale thermophoresis (MST) monomer/dimer equilibrium; assay type: physicochemical
Experimental: (§1) Microscale thermophoresis (MST) and nano differential scanning fluorimetry (NanoDSF) were performed to characterize the dimer-monomer transition. MST was used to determine the monomer/dimer equilibrium dissociation constant Kd. MST is based on thermodriven diffusion of molecules while NanoDSF is based on Trp fluorescence and is commonly used for thermostability Tm.

[4] = biological target: GLP-2-Fc self-association; assay: NanoDSF at room temperature, monomer/dimer self-association; assay type: physicochemical
Experimental: as §1
In the NanoDSF assay, room temperature is used and one tryptophan in GLP-2 is targeted that potentially undergoes conformational changes during GLP-2-Fc self-association. Only the tryptophan fluorescence from the protein contributes to the signal. If tryptophan is buried or stable, the peak is at 330 nm and if the tryptophan is exposed or flexible, the peak is at 350 nm.

[5] = system: mice; assay: Fat (triglyceride) tolerance test with olive oil bolus; assay type: in vivo; conditions: female mice, 4.5 mg/kg every 3 days for 13 days, olive oil bolus 10 mL/kg, vs vehicle
Experimental: A fat tolerance assay was performed in mice to assess the ability of GLP-2 peptibody K274 to promote absorption of dietary fats. Dietary fat is hydrolyzed into free fatty acids and glycerides, which are transported through the intestinal villi and absorbed by enterocytes. The enterocytes synthesize the triglycerides, which then enter the bloodstream. Such postprandial triglycerides peak in the bloodstream at about 3 hours after ingestion of a fat-rich meal.
It is hypothesized that GLP-2 peptibody K274, by enhancing length of the intestinal villi, would improve the absorption of fatty acids in a mouse model of short bowel syndrome. Assaying for an increase in peak postprandial triglycerides allows for detection of such increased absorption.
Female mice were divided into two groups of […] mice each. Both groups were treated every 3 days for a total of 13 days either with 4.5 mg/kg K274 peptibody (treated group) or vehicle (control group). On day 14 after start of treatment, mice in both groups were fasted for 6 hours followed by administration of an olive oil bolus of 10 mL/kg. Mice in the treated and control groups were divided into 6 subgroups of 6 animals each. […] Plasma triglyceride concentrations were measured on a Cobas C311 instrument (Roche) using the TRIGB assay kit.

[6] = system: CD-1 mice; assay: Histology study of villi length, washout period; assay type: in vivo, female CD-1 mice; conditions: 4.5 mg/kg Q3D over 14 days, days 15, 18, 21
Experimental: Various doses of GLP-2 peptibody B264 were analyzed to assess the pharmacodynamic plateau, with the primary endpoint a measurement of the small intestinal weight relative to the total body weight and a histology study of the length of villi. 11 groups of six female CD-1 mice each were formed.
For histology, four micron paraffin sections were prepared for H&E and Ki67 IHC staining. After whole slide scanning, an imagescope was used to measure villi length and crypt depth, and to analyze Ki67. The antibody against Ki67 is a rabbit antibody sold by Adcam®, catalog number ab 616667. The antibody was used at a working concentration of 1:100 and was detected using a Leica® Refine Kit.
The first day after the washout period ends is day 15, the second day is day 16, etc. Day 2 of the washout period corresponds with day 15. Day 5 of the washout period corresponds with day 18. Day 8 of the washout period corresponds with day 21. D15, D18, and D21 correspond to days 15, 18 and 21 on which the villi length was measured.

[7] = Rat pharmacokinetic comparability with/without C-terminal lysine; assay type: in vivo, Sprague-Dawley rats; conditions: 1 mg/kg, intravenous and subcutaneous
Experimental: 1 mg/kg of total GLP-2 peptibody K protein was administered subcutaneously to one group of six male Sprague-Dawley rats. 1 mg/kg of total GLP-2 peptibody K274 protein was administered intravenously to another group of six male Sprague-Dawley rats. 1 mg/kg of total GLP-2 peptibody B protein was administered subcutaneously to a third group of five male Sprague-Dawley rats. 1 mg/kg of total GLP-2 peptibody B264 protein was administered subcutaneously to a fourth group of five male Sprague-Dawley rats.
For all of the above groups, plasma samples were taken pre-dose, and at the following time points post-dose: 5 minutes (day 1), 10 minutes (day 1), 20 minutes (day 1), 30 minutes (day 1), 1 hour (day 1), 2 hours (day 1), 6 hours (day 1), 24 hours (day 2), 48 hours (day 3), 72 hours (day 4), 120 hours (day 6), 168 hours (day 8), 240 hours (day 11), and 336 hours (day 15).
Tables showing the pharmacokinetic data comparing intravenously administered GLP-2 peptibody K and GLP-2 peptibody K274 are in FIG. 10B. Tables showing the pharmacokinetic data comparing subcutaneously administered GLP-2 peptibody K and GL-2 peptibody K274 are in FIG. 10C.

[8] = Mouse pharmacokinetics of GLP-2 peptibody K274; assay type: in vivo; conditions: CD1 mice, Q3D over 14 days
Experimental: A pharmacokinetics analysis was performed in CD1 mice. […] Mice were divided into groups, with one group administered 0.45 mg/kg every three days (Q3D), another administered 1.5 mg/kg Q3D, another administered 4.5 mg/kg Q3D, and another administered 15 mg/kg Q3D over a 14 day period. After dosing was discontinued, concentrations were measured 3, 9, 14, and 21 days later.

[9] = system: CD-1 mice; assay: Pharmacodynamic plateau study (small intestine weight); assay type: in vivo; conditions: female CD-1 mice
Experimental: Various doses of GLP-2 peptibody K274 were analyzed in female CD-1 mice to assess the pharmacodynamic plateau, with the primary endpoint a measurement of the small intestinal weight relative to the total body weight and a histology study of the length of villi. Eight groups of six females each were formed. In two groups, only the vehicle was administered Q3D for as a negative control. In four groups, the following doses were administered Q3D over 14 days: 0.45 mg/kg, 1.5 mg/kg, 4.5 mg/kg and 15 mg/kg. In one additional group, 4.5 mg/kg was administered Q3D for 14 days with the study ending four days later at day 18. In another additional group, 4.5 mg/kg was administered Q3D for 14 days with the study ending seven days later at day 21.
For the primary endpoint, the small intestine weight in grams is shown in FIG. 12A, the small intestine weight normalized to body weight is shown in FIG. 12B, and the colon weight normalized to body weight is shown in FIG. 12C. A dose of 4.5 mg/kg had maximum effect.
FIG. 13B is a graph depicting the percentage change in small intestine weight for both vehicle and GLP-2 peptibody K274.

For `CC[C@H](C)[C@H](NC(=O)[C@H](Cc1ccccc1)NC(=O)[C@H](CC(=O)O)NC(=O)[C@H](CCCNC(=N)N)NC(=O)[C@H](C)NC(=O)[C@H](C)NC(=O)[C@H](CC(C)C)NC(=O)[C@H](CC(N)=O)NC(=O)[C@H](CC(=O)O)NC(=O)[C@H](CC(C)C)NC(=O)[C@@H](NC(=O)[C@@H](NC(=O)[C@H](CC(N)=O)NC(=O)[C@H](CCSC)NC(=O)[C@H](CCC(=O)O)NC(=O)[C@H](CC(=O)O)NC(=O)[C@H](CO)NC(=O)[C@H](Cc1ccccc1)NC(=O)[C@H](CO)NC(=O)CNC(=O)[C@H](CC(=O)O)NC(=O)CNC(=O)[C@@H](N)Cc1c[nH]cn1)[C@@H](C)O)[C@@H](C)CC)C(=O)N[C@@H](CC(N)=O)C(=O)N[C@@H](Cc1c[nH]c2ccccc12)C(=O)N[C@@H](CC(C)C)C(=O)N[C@H](C(=O)N[C@@H](CCC(N)=O)C(=O)N[C@H](C(=O)N[C@@H](CCCCN)C(=O)N[C@H](C(=O)N[C@H](C(=O)N[C@@H](CC(=O)O)C(=O)O)[C@@H](C)O)[C@@H](C)CC)[C@@H](C)O)[C@@H](C)CC` [teduglutide], the Vc [1] is listed as 0.218 L/kg, the “association constant (ka)” value [1] is listed as 9.67 day⁻¹ and the half-life ([2]; SBS patients) is listed as ~1.3 h. For the same compound, the half-life ([2]; healthy patients) was “approximately 2 hours”, the Kd [3] was 24 ± 3 µM and the Kd [4] was 77 ± 14 µM.

With “GLP-2 peptibody K274: GLP-2[A2G]-GGGGSGGGGSGGGGS linker-IgG1 Fc (LALA) without C-terminal lysine; SEQ ID NO: 7” the “postprandial triglyceride concentration in the bloodstream” value [5] was “significantly higher”, the “persistence of villi length during washout period” value [6] was “more persistence than does GLP-2 peptibody B264” and the “pharmacokinetic comparability of K and K274” value [7] was “identical from a pharmacokinetic point of view”. For the same compound, the CL/F [8] was 3.39 mL/h/kg, the Vc [8] was 0.213 L/kg and the “persistence of increased small intestine weight normalized to body weight after dosing” value ([9]; 4.5 mg/kg Q3D for 14 days, washout) was “persisted for at least five days after dosing”. For the same compound, the “dose with maximum effect on small intestine / colon weight” value ([9]; Q3D over 14 days) was 4.5 mg/kg.
